The target in test [1] is T1, EPR3 intracellular kinase domain (Lotus japonicus, UniProt D3KU53).
T1 construct: gene LYS3; intracellular kinase domain residues 259-620; E. coli Rosetta 2; His10-Arg7-SUMO tag cut by 3C protease; lambda-phosphatase dephosphorylated
Kind of test: autophosphorylation, SDS-PAGE with Pro-Q Diamond stain. The following applies: 20 μM ATP, 10 mM MgCl2, pH 8.0, 1 h. In kind it is biochemical.

Test [2] addresses T2, EPR3a intracellular kinase domain (Lotus japonicus, UniProt Z9OTA2OEF3).
T2 construct: intracellular kinase domain residues 255-615; E. coli Rosetta 2; His10-Arg7-SUMO tag cut by 3C protease; lambda-phosphatase dephosphorylated
T2 sequence (Z9OTA2OEF3 255-615): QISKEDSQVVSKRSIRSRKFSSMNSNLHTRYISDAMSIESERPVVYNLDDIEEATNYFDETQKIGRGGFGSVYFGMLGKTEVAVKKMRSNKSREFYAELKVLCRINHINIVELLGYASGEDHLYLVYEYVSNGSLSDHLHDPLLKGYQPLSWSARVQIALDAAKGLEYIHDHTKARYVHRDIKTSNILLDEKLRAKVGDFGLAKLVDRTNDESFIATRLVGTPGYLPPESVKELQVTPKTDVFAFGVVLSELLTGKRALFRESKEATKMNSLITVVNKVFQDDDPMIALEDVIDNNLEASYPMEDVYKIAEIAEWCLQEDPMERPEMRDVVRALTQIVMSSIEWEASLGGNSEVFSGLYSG
The test is described as above. In kind it is biochemical. The following applies: 20 μM ATP, 10 mM MgCl2, pH 8.0, 1 h.

Another test addresses T3, EPR3a ectodomain (Lotus japonicus, UniProt Z9OTA2OEF3).
T3 construct: ectodomain residues 25-223; native signal peptide replaced by AcGP67 signal peptide; non-cleavable C-terminal 6xHis; Sf9 insect cells; PNGase F trimmed and BLUE-NHS labelled for MST
T3 sequence (Z9OTA2OEF3 25-223): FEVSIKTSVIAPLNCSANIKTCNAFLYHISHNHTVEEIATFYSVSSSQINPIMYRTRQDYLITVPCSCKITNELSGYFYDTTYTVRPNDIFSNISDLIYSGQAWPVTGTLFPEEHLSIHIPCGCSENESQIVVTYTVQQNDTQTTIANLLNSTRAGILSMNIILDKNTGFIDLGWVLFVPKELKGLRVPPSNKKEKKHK
The experiment in a line: microscale thermophoresis. It is filed as binding. The following applies: PBS pH 7.4, 500 mM NaCl, 0.01% Tween20, RT, labelled protein. For orientation: MST reads how a fluorescent partner responds to local heating, with and without ligand.

T1 sequence (D3KU53 entry or part of it): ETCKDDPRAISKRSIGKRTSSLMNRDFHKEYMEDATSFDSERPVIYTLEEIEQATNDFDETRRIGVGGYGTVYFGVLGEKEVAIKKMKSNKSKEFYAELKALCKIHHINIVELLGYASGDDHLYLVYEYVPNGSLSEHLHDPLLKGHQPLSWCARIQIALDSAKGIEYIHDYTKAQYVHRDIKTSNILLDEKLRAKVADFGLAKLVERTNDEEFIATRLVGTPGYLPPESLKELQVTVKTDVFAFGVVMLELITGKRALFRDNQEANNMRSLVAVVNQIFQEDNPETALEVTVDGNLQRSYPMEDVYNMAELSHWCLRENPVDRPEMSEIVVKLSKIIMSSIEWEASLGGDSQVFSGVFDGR

With `Nc1ncnc2c1ncn2[C@@H]1O[C@H](COP(=O)(O)OP(=O)(O)OP(=O)(O)O)[C@@H](O)[C@H]1O` [ATP], the “autophosphorylation, SDS-PAGE with Pro-Q Diamond stain” value is “EPR3a and EPR3 are able to autophosphorylate” in test [1]; “EPR3a and EPR3 are able to autophosphorylate” in test [2].

As usually defined, the Kd is the free concentration of one partner at which half of the binding sites on the other are occupied at equilibrium, for simple one-to-one binding. Lower therefore signals higher affinity. The compound R. leguminosarum EPS returned a Kd on EPR3a ectodomain of 12.5 ± 4 µM.

On EPR3a ectodomain, S. meliloti EPS displayed an equilibrium dissociation constant (Kd) of 937 ± 389 µM.

Take M. loti EPS: the affinity on EPR3a ectodomain, expressed as Kd, was 44.4 ± 11.2 µM.

On EPR3a ectodomain, `OC[C@H]1O[C@@H](O[C@@H]2[C@@H](O)[C@H](O[C@@H]3[C@@H](O)[C@H](O[C@@H]4[C@@H](O)[C@H](O[C@H]5[C@H](O)[C@@H](CO)OC(O)[C@@H]5O)O[C@H](CO)[C@H]4O)O[C@H](CO)[C@H]3O)O[C@H](CO)[C@H]2O)[C@H](O)[C@@H](O)[C@@H]1O` (some centres unmarked) [laminaripentaose] returned a Kd of around 850 µM.

On EPR3a ectodomain, `OC[C@H]1O[C@@H](O[C@@H]2[C@@H](O)[C@H](O[C@@H]3[C@@H](O)[C@H](O[C@@H]4[C@@H](O)[C@H](O[C@@H]5[C@@H](O)[C@H](O[C@H]6[C@H](O)[C@@H](CO)OC(O)[C@@H]6O)O[C@H](CO)[C@H]5O)O[C@H](CO)[C@H]4O)O[C@H](CO)[C@H]3O)O[C@H](CO)[C@H]2O)[C@H](O)[C@@H](O)[C@@H]1O` (some centres unmarked) [laminarihexaose] yielded an equilibrium dissociation constant (Kd) of around 670 µM.

For S. indica β-1,3/β-1,6 decasaccharide, the equilibrium dissociation constant (Kd) at EPR3a ectodomain (first (high-affinity) of two binding events) turned out to be 51 ± 23 µM.
